In PubChem BioAssay AID2060484 (Molecular Pharmacology Branch, DTP, NCI, 2025):

Test system: SUM149PT spheroids with HUVEC/MSC, viability
Assay: Anticancer human tumor SUM149PT cell line growth inhibition [GQUAD];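 note: spheroids exposed to drugs for seven days before readout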;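 for viability, T/C: percent viability relative to DMSO vehicle control taken as 100%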
Details: for IC50: curve of first compound; for viability, T/C: stronger effect = lower value
Method in brief: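 Tumor cells were grown as complex spheroids with HUVEC endothelial cells and mesenchymal stem cells as stroma. G-quadruplex stabilizers were combined with targeted agents over half-log dilutions from near the clinical Cmax, or from 10 microM.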

[1] = second compound 0.0316 µM, first compound 0.0316 µM
[2] = second compound 0.0316 µM, first compound 0.316 µM
[3] = second compound 0.1 µM, first compound 0.0316 µM
[4] = second compound 0.1 µM, first compound 0.316 µM
[5] = second compound 0.316 µM, first compound 0.0316 µM
[6] = second compound 0.316 µM, first compound 0.316 µM
[7] = second compound 1 µM, first compound 0.0316 µM
[8] = second compound 1 µM, first compound 0.316 µM
[9] = second compound 3.16 µM, first compound 0.0316 µM
[10] = second compound 3.16 µM, first compound 0.316 µM
[11] = second compound 10 µM, first compound 0.0316 µM
[12] = second compound 10 µM, first compound 0.316 µM

## CC[C@@]1(O)C(=O)OCc2c1cc1n(c2=O)Cc2cc3c(CN(C)C)c(O)ccc3nc2-1 + Cc1cnc(CNC(=O)c2c(=O)c3ccc(N4CCCN(C)CC4)nc3n3c2sc2ccccc23)cn1
Second compound 0.0316 µM
  IC50: 26.4 nM
Second compound 0.1 µM
  IC50: 18.7 nM
Second compound 0.316 µM
  IC50: 14.7 nM
Second compound 1 µM
  IC50: < 0.999 nM
Second compound 3.16 µM
  IC50: < 0.999 nM
Second compound 10 µM
  IC50: < 0.999 nM
Second compound 0.0316 µM, first compound 0.000999 µM
  viability, T/C: 90.4%
Second compound 0.0316 µM, first compound 0.00316 µM
  viability, T/C: 71.8%
Second compound 0.0316 µM, first compound 0.00999 µM
  viability, T/C: 77.7%
[1]
  viability, T/C: 44.9%
Second compound 0.0316 µM, first compound 0.0999 µM
  viability, T/C: 36.1%
[2]
  viability, T/C: 40.4%
Second compound 0.1 µM, first compound 0.000999 µM
  viability, T/C: 60.9%
Second compound 0.1 µM, first compound 0.00316 µM
  viability, T/C: 66.8%
Second compound 0.1 µM, first compound 0.00999 µM
  viability, T/C: 56.8%
[3]
  viability, T/C: 43.5%
Second compound 0.1 µM, first compound 0.0999 µM
  viability, T/C: 44.7%
[4]
  viability, T/C: 44.6%
Second compound 0.316 µM, first compound 0.000999 µM
  viability, T/C: 48.5%
Second compound 0.316 µM, first compound 0.00316 µM
  viability, T/C: 58.3%
Second compound 0.316 µM, first compound 0.00999 µM
  viability, T/C: 55.1%
[5]
  viability, T/C: 38.9%
Second compound 0.316 µM, first compound 0.0999 µM
  viability, T/C: 42%
[6]
  viability, T/C: 45.1%
Second compound 1 µM, first compound 0.000999 µM
  viability, T/C: 38.5%
Second compound 1 µM, first compound 0.00316 µM
  viability, T/C: 44.6%
Second compound 1 µM, first compound 0.00999 µM
  viability, T/C: 45.5%
[7]
  viability, T/C: 41.5%
Second compound 1 µM, first compound 0.0999 µM
  viability, T/C: 37.4%
[8]
  viability, T/C: 39.3%
Second compound 3.16 µM, first compound 0.000999 µM
  viability, T/C: 38.5%
Second compound 3.16 µM, first compound 0.00316 µM
  viability, T/C: 38%
Second compound 3.16 µM, first compound 0.00999 µM
  viability, T/C: 40.4%
[9]
  viability, T/C: 37.1%
Second compound 3.16 µM, first compound 0.0999 µM
  viability, T/C: 36.3%
[10]
  viability, T/C: 35.1%
Second compound 10 µM, first compound 0.000999 µM
  viability, T/C: 0.4%
Second compound 10 µM, first compound 0.00316 µM
  viability, T/C: 11.1%
Second compound 10 µM, first compound 0.00999 µM
  viability, T/C: 9.79%
[11]
  viability, T/C: 11.4%
Second compound 10 µM, first compound 0.0999 µM
  viability, T/C: 2.25%
[12]
  viability, T/C: 2.23%

## COc1cc(C2c3cc4c(cc3C(OC3OC5COC(C)OC5C(O)C3O)C3COC(=O)C23)OCO4)cc(OC)c1O (centres undefined) + Cc1cnc(CNC(=O)c2c(=O)c3ccc(N4CCCN(C)CC4)nc3n3c2sc2ccccc23)cn1
Second compound 0.0316 µM
  IC50: 365 nM
Second compound 0.1 µM
  IC50: 304 nM
Second compound 0.316 µM
  IC50: 125 nM
Second compound 1 µM
  IC50: < 31.6 nM
Second compound 3.16 µM
  IC50: < 31.6 nM
Second compound 10 µM
  IC50: < 31.6 nM
[1]
  viability, T/C: 82.8%
Second compound 0.0316 µM, first compound 0.1 µM
  viability, T/C: 59.1%
[2]
  viability, T/C: 48.2%
Second compound 0.0316 µM, first compound 1 µM
  viability, T/C: 45.8%
Second compound 0.0316 µM, first compound 3.16 µM
  viability, T/C: 27.3%
Second compound 0.0316 µM, first compound 10 µM
  viability, T/C: 13.3%
[3]
  viability, T/C: 67.7%
Second compound 0.1 µM, first compound 0.1 µM
  viability, T/C: 52.1%
[4]
  viability, T/C: 52.5%
Second compound 0.1 µM, first compound 1 µM
  viability, T/C: 42%
Second compound 0.1 µM, first compound 3.16 µM
  viability, T/C: 24%
Second compound 0.1 µM, first compound 10 µM
  viability, T/C: 11.5%
[5]
  viability, T/C: 57.8%
Second compound 0.316 µM, first compound 0.1 µM
  viability, T/C: 47.4%
[6]
  viability, T/C: 44.5%
Second compound 0.316 µM, first compound 1 µM
  viability, T/C: 40.1%
Second compound 0.316 µM, first compound 3.16 µM
  viability, T/C: 25.6%
Second compound 0.316 µM, first compound 10 µM
  viability, T/C: 12.4%
[7]
  viability, T/C: 45.7%
Second compound 1 µM, first compound 0.1 µM
  viability, T/C: 45.9%
[8]
  viability, T/C: 42.2%
Second compound 1 µM, first compound 1 µM
  viability, T/C: 39%
Second compound 1 µM, first compound 3.16 µM
  viability, T/C: 24.5%
Second compound 1 µM, first compound 10 µM
  viability, T/C: 13.4%
[9]
  viability, T/C: 39.5%
Second compound 3.16 µM, first compound 0.1 µM
  viability, T/C: 38.1%
[10]
  viability, T/C: 35.6%
Second compound 3.16 µM, first compound 1 µM
  viability, T/C: 39.6%
Second compound 3.16 µM, first compound 3.16 µM
  viability, T/C: 24.9%
Second compound 3.16 µM, first compound 10 µM
  viability, T/C: 14.3%
[11]
  viability, T/C: 0.14%
Second compound 10 µM, first compound 0.1 µM
  viability, T/C: 12.2%
[12]
  viability, T/C: 31.4%
Second compound 10 µM, first compound 1 µM
  viability, T/C: 19%
Second compound 10 µM, first compound 3.16 µM
  viability, T/C: 1.9%
Second compound 10 µM, first compound 10 µM
  viability, T/C: 3.26%
